Source: patent US5958890A, “Tricyclic compounds useful for inhibition of G-protein function and for treatment of proliferative diseases” (Schering Corporation, priority 1997, dated 1999)

Tests used:
[1] = molecular target: farnesyl protein transferase (Homo sapiens, UniProt P49354+P49356); assay: FPT inhibition, in vitro enzyme assay (procedure of WO 95/10516); format: biochemical
COS Cell = COS Cell IC50 (Cell-Based Assay, procedure of WO 95/10516)
Procedure: FPT IC50 (inhibition of farnesyl protein transferase, in vitro enzyme assay) and COS Cell IC50 (Cell-Based Assay) were determined following the assay procedures described in WO 95/10516, published Apr. 20, 1995. GGPT IC50 (inhibition of geranylgeranyl protein transferase, in vitro enzyme assay), Cell Mat Assay, and anti-tumor activity (in vivo anti-tumor studies) could be determined by the assay procedures described in WO 95/10516. The disclosure of WO 95/10516 is incorporated herein by reference thereto.

Compound	IC50 [1] [nM]	IC50 (COS Cell) [nM]
NC(=O)N1CC[C@H](CC(=O)N2CCC(C3c4ncc(Br)cc4CCc4cc(Cl)cc(Cl)c43)CC2)C1 (single isomer, unassigned) [Example 1]	0.0386	–
NC(=O)N1CC[C@@H](CC(=O)N2CCC(C3c4ncc(Br)cc4CCc4cc(Cl)cc(Cl)c43)CC2)C1 (single isomer, unassigned) [Example 2]	–	0.03
